# Test results from patent US20100041756A1, “METHOD OF MODULATING B CELL FUNCTIONING” (priority 2004, published 2010).
# Columns and labels:
# [1] = tested on: B cells stimulated with anti-CD40; experiment: Purified B cell proliferation, anti-CD40, 3H-thymidine incorporation (Example 4); format: cell-based, mouse
# Description: (§1) FIG. 10 is a graphical representation depicting that 3,4-DAA and 3-HAA inhibit B and T cell proliferation in vitro. Purified B and T cells were stimulated for 72 h with anti-CD40 (a), or anti-CD3/anti-CD28 (b) respectively, in the presence of varying doses of 3,4-DAA, or 3-HAA.
# (§2) A single cell suspension was prepared from spleen by mincing through a cell strainer, and erythrocytes were lysed using an ammonium chloride solution (Sigma, St Louis, Mo., USA). B cells were positively enriched by using anti-IgM MACS microbeads, and T cells were positively enriched using anti-CD4 MACS microbeads and the MACS system, according to the manufacturer's guidelines (Miltenyi Biotec, Bergisch Gladbach, Germany). Purity was assessed by flow cytometric analysis (B cell>90% CD19+, T cell>90% CD4+). Cells were cultured at 5×10^5 cells/ml in 200 μl complete RPMI, as above, in a flat bottom 96-well plate and cultured for 72 h. B cells were stimulated with anti-CD40 monoclonal antibody (10 μg/ml; BD), and T cells were stimulated with 5 μg/ml plate-bound anti-CD3 (BD), 5 μg/ml soluble anti-CD28 (BD). Tranilast, 3-HAA, or vehicle (DMSO) were incubated at concentrations stated with the cultures. 48 hours after stimulation, 100 μl culture medium was collected, and cells were pulsed with 1 μCi ^3H thymidine per well for 18 h. Cells were then harvested and plates assessed for incorporation. Each assay was performed on a minimum of 3 occasions. Data shown is of one representative experiment, and is expressed as mean+/−SD of triplicate in culture. IFN-γ, IL-10 and IL-5 levels was assessed in the culture medium by ELISA, as above.
# [2] = tested on: T cells stimulated with anti-CD3/anti-CD28; experiment: Purified T cell proliferation, anti-CD3/anti-CD28, 3H-thymidine incorporation (Example 4); format: cell-based, mouse
# Description: as §1, §2
# [3] = tested on: inguinal lymph node cells; experiment: Cytokine production by draining (inguinal) lymph node cells of treated CIA mice (ELISA); format: in vivo, mouse; conditions: for IL-5 production by lymph node cells: treated mice (FIG. 8)
# Description: FIG. 8 is a graphical representation depicting that mice with established CIA were treated for 10 days with 3,4-DAA or vehicle control. Mice were then killed and draining (inguinal) lymph node cells were cultured for 72 h in the absence or presence of type II collagen.
# Inguinal lymph nodes were excised from Tranilast-treated and control mice. Alternatively, inguinal lymph nodes were removed from untreated arthritic mice (day 1-5 of arthritis) and Tranilast was added in vitro. In both cases, LNC were cultured in RPMI 1640 containing FCS (10% v/v), 2-mercaptoethanol (20 μM), L-glutamine (1% w/v), penicillin (100 U/ml) and streptomycin (100 μg/ml) in the presence or absence of type II collagen (50 μg/ml). Secreted cytokines (IFN-γ, IL-5, TNFα and IL-10) were measured after 72 h. by ELISA. In brief, 96 well ELISA plates were coated with the respective capture antibody, blocked with bovine serum albumin (2% w/v), and then incubated with LNC culture supernatants (neat) overnight at 4° C. After washing, bound cytokines were detected using biotinylated detect antibodies. A standard curve was generated using known concentrations of the appropriate recombinant cytokine and the concentrations of cytokines present in culture supernatants were estimated by reference to the standard curve.
# [4] = tested on: T cells stimulated with anti-CD3/anti-CD28; experiment: Cytokine production by stimulated T cells in vitro (ELISA); format: cell-based, mouse
# Description: as §1, §2
# [5] = tested on: DBA/1 mice with established collagen-induced arthritis; experiment: Effect of tranilast on established collagen-induced arthritis (Example 1); format: in vivo, mouse; conditions: for Histological score (mean ± SE): 10 days, score 0-3
# Description: FIG. 1 is a graphical representation of the amelioration of established collagen-induced arthritis (CIA) by intraperitoneal administration of tranilast. DBA/1 mice were immunised with bovine type II collagen in complete Freund's adjuvant in order to induce arthritis. After onset of clinical disease mice were randomly assigned to different treatment groups and given tranilast at 100, 200 or 400 mg/kg/day or vehicle control. Clinical scores were assessed throughout the treatment period using a clinical scoring system described in the Examples. The maximum possible score per mouse is 8. There were 7-10 mice per treatment group.
# FIG. 2 is a graphical representation of the amelioration of established CIA by administration of tranilast. DBA/1 mice were immunised with bovine type II collagen in complete Freund's adjuvant in order to induce arthritis. After onset of clinical disease mice were randomly assigned to different treatment groups and given tranilast at 100, 200 or 400 mg/kg/day (i.p.) or vehicle control. Paw-swelling was measured throughout the treatment. There were 7-10 mice per treatment group.
# Bovine CII was purified and prepared as previously described (9) and solubilised by stirring overnight at 4° C. in 0.1M acetic acid.
# Male DBA/1 mice (7-8 animals/group) were immunised i.d. at 8-12 weeks of age with bovine CII (200 μg/mouse), emulsified in CFA (Difco Laboratories, West Moseley, UK). Beginning at 14 days after immunisation, mice were inspected daily for signs of arthritis and treatment was initiated on day 1 of arthritis. This research was approved by the local Ethical Review Process Committee and by the Home Office of the United Kingdom.
# Tranilast was dissolved in 1% NaHCO3 by heating to 70° C. and injected i.p. at 100, 200 or 400 mg/kg/day.
# The development of arthritis was assessed daily for the duration of the experiment. The clinical severity of arthritis was graded as follows, 0=normal, 1=slight swelling and/or erythema, 2=pronounced oedematous swelling. Each limb was graded, allowing a maximal clinical score of 8 for each animal. Swelling of hind paws was recorded with a pair of calipers. All clinical evaluations were performed in a blinded manner.
# At the end of the treatment period the mice were killed, bled and their joints were processed for histology. The first limb to show clinical evidence of arthritis was removed, fixed, decalcified, and embedded before sectioning and staining with haemotoxylin and eosin. Saggital sections were examined by microscopy in a blinded fashion and joints were graded as follows: 0=normal; 1=mild synovitis without cartilage loss or bone erosion; 2=moderate or severe synovitis with erosions present but normal joint architecture intact; 3=severe synovitis with extensive erosions and normal joint architecture disrupted.
# DBA/1 mice were immunised with bovine type II collagen in complete Freund's adjuvant in order to induce arthritis. After onset of clinical disease mice were randomly assigned to different treatment groups and given tranilast at 100, 200 or 400 mg/kg/day (i.p.) or vehicle control. Treatment was continued for 10 days after which time the mice were killed and paws were processed for histology. Joints were graded histologically in a blinded fashion.
smiles,measurement,setting,value
"COc1ccc(/C=C/C(=O)Nc2ccccc2C(=O)O)cc1OC [Tranilast, 2-[[3-(3,4-dimethoxyphenyl)-1-oxo-2-propenyl]amino]benzoic acid]",IC50,"[1]; Mus musculus, B-cell, anti-CD40, 72 h, 3H-thymidine (FIG. 10A), read-out: IC50 for inhibition of B cell proliferation",73.1 µM
same,B cell proliferation,"[1]; anti-CD40, varying doses (FIG. 10A)",dose-dependently inhibited
same,IC50,"[2]; Mus musculus, T-cell, anti-CD3/CD28, 72 h, 3H-thymidine (FIG. 10B), read-out: IC50 for inhibition of T cell proliferation",28 µM
same,T cell proliferation,"[2]; anti-CD3/CD28, varying doses (FIG. 10B)",dose-dependently inhibited
same,IFN-γ production by lymph node cells,"[3]; cultured 72 h, mice given 400 mg/kg for 10 days (FIG. 8)",significantly reduced
same,IL-5 production by lymph node cells,[3]; cultured 72 h,unaffected
same,IL-5 production by lymph node cells,"[3]; cultured 72 h, listed as 3,4-DAA",significantly reduced
same,cytokine production on restimulation with collagen,[3]; cultured 72 h in the presence of type II collagen (FIG. 8),differences between the groups were not significant
same,IFN-γ production by T-cells,[4]; FIG. 10C,dose-dependently reduced
same,IL-10 production by T-cells,[4]; FIG. 10D,dose-dependently inhibited
same,IL-5 production by T-cells,[4]; FIG. 10E,dose-dependently inhibited
same,Histological score (mean ± SE),[5]; 100 mg/kg/day i.p.,1.64 ± 0.35
same,Histological score (mean ± SE),[5]; 200 mg/kg/day i.p.,1.19 ± 0.35
same,Histological score (mean ± SE),[5]; 400 mg/kg/day i.p.,0.57 ± 0.20
same,clinical scores,"[5]; 100, 200 or 400 mg/kg/day i.p., 10 days (FIG. 1)",reduced clinical scores in a dose-dependent fashion
same,paw-swelling,"[5]; 100, 200 or 400 mg/kg/day i.p., 10 days (FIG. 2)",reduced paw-swelling in a dose-dependent fashion
same,"synovitis, cartilage loss and bone erosion (histology)","[5]; compared to control mice, end of 10 day treatment","reduced level of synovitis, cartilage loss and bone erosion"
